Assay results from patent US5071848A, “Tricyclic quinoline antineoplastic agents” (Abbott Laboratories, priority 1989, dated 1991).
In brackets after ≈: the same amount, converted by molar mass. Entries after “also recorded” stand apart in the source; their conditions may differ. Where two headings read alike, the source gives them in different places. Each block holds one compound with its values, some of them ahead of it.

Columns and labels:
[1] = tested on: HCT-8 colon cancer cell line; assay: In vitro cytotoxicity assay (three day MTT microtiter assay), HCT-8; format: cell-based, human; conditions: read-out: In vitro tumor cell cytotoxicity (IC50), HCT-8
Method: (§1) IC50 's were measured in a colorimetric assay for cytotoxic activity against cultured cells according to the protocol described below:
(§2) A three day microtiter assay is used to measure the growth inhibition of cultured cells exposed to a range of drug concentrations. Metabolic activity is measured by the cell's ability to reduce the tetrazolium dye, MTT (3-(4,5-dimethylthiazol-2-yl)-2,5-diphenyltetrazolium bromide) to a quantifiable colored end-product, which absorbs at 570 nm in the visible spectrum. Surviving cells reduce the MTT dye.
Test compounds are dissolved in dimethyl sulfoxide (DMSO) and diluted, first with Earle's Balanced Salt Solution, followed by culture medium, to twice the highest concentration of compound to be tested. […]
The cells are grown in the same medium used for diluting the compounds. After harvesting by trypsinization*, viable cell counts are determined and cell density is adjusted to 25,000 cells/mL. […]
(§3) 4. When the cells have detached as determined by visual and/or microscopic observation, add medium containing fetal calf serum to stop the action of the trypsin and resuspend the cells. […]
After three days, 20 microtiters of 5 mg/mL MTT in phosphate-buffered saline solution is added to each well. […] DMSO is added to each well to dissolve the water insoluble, colored end product of the dye reduction so that it can be measured spectrophotometrically at 570 nm.

[2] = tested on: Hela cells; assay: In vitro cytotoxicity assay (three day MTT microtiter assay), Hela; format: cell-based; conditions: Homo sapiens, 72 h, read-out: In vitro tumor cell cytotoxicity (IC50), Hela
Method: as §1, §2
(§4) Test compounds are dissolved in dimethyl sulfoxide (DMSO) and diluted, first with Earle's Balanced Salt Solution, followed by culture medium, to twice the highest concentration of compound to be tested. From this concentrated stock, two-fold serial dilutions are prepared in 96-well microtiter trays, each well containing twice the desired final concentration of compound. Each concentration is tested in triplicate and compared to triplicate drug-free controls.
(§5) The cells are grown in the same medium used for diluting the compounds. After harvesting by trypsinization*, viable cell counts are determined and cell density is adjusted to 25,000 cells/mL. Inoculum (0.1 mL), containing the cells, is then added to each well for a final concentration of 2,500 cells per well. Addition of the inoculum dilutes the test compounds to the desired final concentration.
(§6) *Adherent cells are harvested by trypsinization as follows:
(§7) 1. Remove the medium by aspiration.
(§8) 2. Rinse cell monolayer twice with Earle's Balanced Salt Solution.
(§9) 3. Add trypsin (0.05%)/EDTA (0.53 mM). For each 25 cm^2 use approximately 0.2 mL of solution, tilt to cover the monolayer, then withdraw trypsin leaving only a thin film of solution. Incubate at room temperature until cell monolayer detaches.
(§10) 4. When the cells have detached as determined by visual and/or microscopic observation, add medium containing fetal calf serum to stop the action of the trypsin and resuspend the cells. Triturate to aid dissociation of cell clumps.
(§11) 5. Determine the number of cells per milliliter by electronic cell counter (e.g. Coulter Counter) or by mixing an aliquot of cell suspension with Trypan Blue (0.4% in normal saline) and counting the viable cells using a hemacytometer.
(§12) Microtiter trays are incubated for three days at 36° C. in a humidified atmosphere containing 5% carbon dioxide.
(§13) After three days, 20 microtiters of 5 mg/mL MTT in phosphate-buffered saline solution is added to each well. Trays are returned to the incubator for two to four hours to allow the surviving cells to reduce the dye. Medium and unreduced dye are removed by aspiration. DMSO is added to each well to dissolve the water insoluble, colored end product of the dye reduction so that it can be measured spectrophotometrically at 570 nm.

[3] = tested on: P388.D1 leukemia cell line; assay: In vitro cytotoxicity assay (three day MTT microtiter assay), P388.D1; format: cell-based; conditions: Mus musculus, P388D1, 72 h, read-out: In vitro tumor cell cytotoxicity (IC50), P388.D1
Method: (§14) The cytotoxity of the compounds of the present invention is illustrated in Table 6. IC50 's were measured in a colorimetric assay for cytotoxic activity against cultured cells according to the protocol described below:
as §2, §4, §5, §6, §7, §8, §9, §10, §11, §12
as §13, with “nm. The IC50 is determined as the concentration of compound tested required to reduce the absorbance at 570 nm to 50% of non-drug treated control values.” for “nm.”
^c P388 D1 is a leukemia cell line.

[4] = tested on: A549 cell line; assay: In vitro cytotoxicity assay (three day MTT microtiter assay), A549; format: cell-based; conditions: Homo sapiens, read-out: In vitro tumor cell cytotoxicity (IC50), A549
Method: as §1, §2, §4, §5, §6, §7, §8, §9, §10, §11, §12, §13

[5] = tested on: DNA topoisomerases; conditions: in words; known antitumor drugs; cited from earlier work
[6] = tested on: DNA topoisomerase II; assay: DNA Breakage Assay: topoisomerase II-mediated DNA breakage (linearized 32P-labeled PBR 322 plasmid, agarose gel); format: biochemical, calf; parameters: key to Topoisomerase II-mediated DNA breakage, extent of breakage: SB: strong breakage; MB: moderate breakage; WB: weak breakage; conditions: for Topoisomerase II-mediated DNA breakage, extent of breakage: at the concentration given; for Topoisomerase II-mediated DNA breakage, Concentration: concentration of compound which cleaves the DNA to smaller fragments, 30 minutes incubation
Method: Antitumor activity was assayed using the DNA Breakage Assay described below.
The DNA breakage assay requires two major reagents: DNA topoisomerase II and radiolabeled DNA. DNA topoisomerase II (topo II) was isolated from calf thymus as described by B. D. Holligan, et al. in J. Biol. Chem., 260, 2475-2482 (1985). Pure enzyme or partially purified extracts enriched in topo II activity may be used. PBR 322 plasmid was used as the DNA substrate. This plasmid, which is isolated in the closed circular form, is first linearized using, a restriction enzyme which cuts the plasmid in only one place. The newly exposed ends of the plasmid are then labeled with the radionuclide, 32P, using standard techniques described by T. Maniatis, et al. in "Molecular Cloning", Cold Spring Harbor Press, p. 115 (1982).
The enzyme and the radiolabeled DNA are added together first, then drug is added. After an incubation period of 30 minutes, the mixtures are quenched using 1% SDS. The mixtures are then subjected to agarose gel electrophoresis which separates the full length, linear substrate DNA from any small fragments that might be formed as a consequence of drug action. Smaller fragments run with a higher mobility. The distribution of the DNA species in the gel is assessed by autoradiography as described by T. Maniatis, et al. in "Molecular Cloning", Cold Spring Harbor Press, p. 115 (1982).
DNA breakage activity is assessed based on the level of substrate lost, the level of DNA appearing as smaller pieces running faster in the gel, and the distribution of these smaller pieces in the gel. The last criterion is important since drug-induced DNA cleavage that is enzyme-mediated fragmentation results in specific banding patterns due to the fact that the enzyme binds to specific sequences along the DNA molecule. A definite banding pattern is thus indicative of topo II-mediated cleavage and correlates well with anti-tumor activity.

[7] = tested on: Lewis Lung Carcinoma (LLC1) cells; assay: In vitro cytotoxicity assay (three day MTT microtiter assay), LLC1; format: cell-based, murine; conditions: Mus musculus, LLC1, 72 h, read-out: In vitro tumor cell cytotoxicity (IC50), LLC1
Method: as §14, §2, §4, §5, §6, §7, §8
3. […]
as §3
After three days, 20 microtiters of 5 mg/mL MTT in phosphate-buffered saline solution is added to each well. […] DMSO is added to each well to dissolve the water insoluble, colored end product of the dye reduction so that it can be measured spectrophotometrically at 570 nm. […]

[8] = tested on: P388 Leukemia; assay: In vivo antitumor activity, P388 Leukemia, increased lifespan; parameters: species or system BDF1 mice; conditions: IP, day 1 to day 5, survival monitored 30 days
Method: (§15) The in vivo data presented in Table 7 was determined in BDF1 mice for two murine cancer models, using 6 to 10 animals per test group. In the case of Lewis Lung carcinoma (LL) the mice are inoculated subcutaneously (SC) in the axillary region with a puncture in the inguinal area with the tumor on day 0. The compound being tested is administered intraperitoneally (IP) from day 1 to day 9 for a total of nine injections. The tumors are weighed on day 14 and the weight inhibition expressed as the median weight ratio of treated (T) to control (C) tumors. In the case of P388 Leukemia cells, a suspension of diluted ascites fluid (0.1 mL) containing 1×10^6 cells is implanted IP into the mice on day 0 and the compound being tested is administered IP from day 1 to day 5 for a total of five injections. Survival was monitored for 30 days and the increased lifespan expressed as median survival time of treated (T) to control (C) mice.

[9] = tested on: Lewis Lung carcinoma (LL); assay: In vivo antitumor activity, Lewis Lung carcinoma (LL), tumor weight inhibition; parameters: species or system BDF1 mice; conditions: IP, day 1 to day 9, determined on day 14
Method: as §15

Structure (SMILES): COc1cc([C@@H]2c3cc4c(cc3[C@@H](O[C@@H]3O[C@@H]5CO[C@@H](C)O[C@H]5[C@H](O)[C@H]3O)[C@H]3COC(=O)[C@H]23)OCO4)cc(OC)c1O [Etoposide, etoposide, reference compound]
IC50 ([1]; Homo sapiens, HCT-8, 72 h): 0.68 µg/mL (≈ 1.16 µM) | IC50 ([2]; HeLa): 4 µg/mL (≈ 6.8 µM) | IC50 [3]: 0.05 µg/mL (≈ 0.085 µM) | IC50 ([4]; A549, 72 h): 1 µg/mL (≈ 1.7 µM) | effect on DNA topoisomerase-mediated DNA breakage-rejoining / cleavage [5]: found to affect the breakage-rejoining reaction of mammalian DNA mediated by DNA topoisomerases; also recorded: known to act by inducing topo II mediated DNA cleavage

Structure (SMILES): O=c1[nH]sc2c1c(=O)c1cc(F)c(N3CCNCC3)c(F)c1n2C1CC1 [Example 2]
Topoisomerase II-mediated DNA breakage, extent of breakage [6]: SB | Topoisomerase II-mediated DNA breakage, Concentration [6]: 32 µg/mL | IC50 ([2]; HeLa): 3.9 µg/mL (≈ 10.3 µM) | IC50 [7]: 0.99 µg/mL (≈ 2.62 µM)

Topoisomerase II-mediated DNA breakage, extent of breakage [6]: SB | Topoisomerase II-mediated DNA breakage, Concentration [6]: 32 µg/mL
Structure (SMILES): CC1CN(c2c(F)cc3c(=O)c4c(=O)[nH]sc4n(C4CC4)c3c2F)CCN1 (centres unmarked) [Example 3]
IC50 ([1]; 72 h, HCT-8 human colon cancer, three days, MTT): 14 µg/mL (≈ 35.7 µM) | IC50 [3]: 3.1 µg/mL (≈ 7.9 µM) | P388 Leukemia % T/C, median lifespan of treated compared to control mice ([8]; 31.5 mg/kg): 145% | P388 Leukemia % T/C, median lifespan of treated compared to control mice ([8]; 62.5 mg/kg): 145% | P388 Leukemia % T/C, median lifespan of treated compared to control mice ([8]; 125 mg/kg): 160% | P388 Leukemia % T/C, median lifespan of treated compared to control mice ([8]; 250 mg/kg): 160% | IC50 ([4]; 72 h, A549, three days, MTT): 8.3 µg/mL (≈ 21.2 µM) | LL (T/C), median weight ratio of treated to control tumors ([9]; 31.5 mg/kg): 0.81 | LL (T/C), median weight ratio of treated to control tumors ([9]; 62.5 mg/kg): 0.75 | LL (T/C), median weight ratio of treated to control tumors ([9]; 125 mg/kg): 0.59 | LL (T/C), median weight ratio of treated to control tumors ([9]; 250 mg/kg): 0.35

Topoisomerase II-mediated DNA breakage, extent of breakage [6]: SB | Topoisomerase II-mediated DNA breakage, Concentration [6]: 32 µg/mL
Structure (SMILES): NC1CCN(c2c(F)cc3c(=O)c4c(=O)[nH]sc4n(C4CC4)c3c2F)C1 (centres unmarked) [Example 11]
IC50 ([2]; Hela cells, three days, MTT): 0.95 µg/mL (≈ 2.51 µM) | IC50 ([7]; Lewis Lung Carcinoma, three days, MTT): 0.52 µg/mL (≈ 1.37 µM)

Structure (SMILES): CCn1c2s[nH]c(=O)c2c(=O)c2cc(F)c(N3CCNCC3)c(F)c21 [Example 14]
Topoisomerase II-mediated DNA breakage, extent of breakage [6]: MB | Topoisomerase II-mediated DNA breakage, Concentration [6]: 64 µg/mL | IC50 ([2]; HeLa): 4 µg/mL (≈ 10.9 µM) | IC50 [7]: 1.5 µg/mL (≈ 4.09 µM)

Structure (SMILES): O=C1c2c(O)ccc(O)c2C(=O)c2c(NCCNCCO)ccc(NCCNCCO)c21 [mitoxantrone]
effect on DNA topoisomerase-mediated DNA breakage-rejoining / cleavage [5]: found to affect the breakage-rejoining reaction of mammalian DNA mediated by DNA topoisomerases

Structure (SMILES): COc1cc([C@@H]2c3cc4c(cc3[C@@H](O[C@@H]3O[C@@H]5CO[C@@H](c6cccs6)O[C@H]5[C@H](O)[C@H]3O)[C@H]3COC(=O)[C@H]23)OCO4)cc(OC)c1O [teniposide]
effect on DNA topoisomerase-mediated DNA breakage-rejoining / cleavage [5]: found to affect the breakage-rejoining reaction of mammalian DNA mediated by DNA topoisomerases; also recorded: known to act by inducing topo II mediated DNA cleavage
